According to US20240099295A1, “CELL TREATMENT AGENT” (AYA Inc., priority 2021, published 2024):

How the values were obtained:
Assay type in all cases: cell-based
[1] = tested on: rat corneal epithelial cells; assay: Cell detaching and suspending effect (Experimental Example 4)
Protocol: A culture solution in which FBS was added to a normal serum-free cell culture solution in a concentration of 10% (10% FBS cell culture solution) was prepared in a culture dish. To this, rat corneal epithelial cells were added at 10^6 cells/ml and cultured for 24 hours under normal cell culture conditions (37° C., CO2 concentration of 5%, humidity of 100%) to make the cultured cells fully adhere to the culture dish wall which is a scaffold.
The culture solution in the culture dish on which cultured cells obtained as described above had adhered was replaced with each of dextran sulfate aqueous solutions and a dextran aqueous solution, which are respectively obtained by dissolving dextran sulfate (Dextran sodium sulfate MW 36000-50000, available from FUJIFILM Wako Pure Chemical Corporation) and dextran (Dextran MW 35000-50000, available from FUJIFILM Wako Pure Chemical Corporation) in purified water and have concentrations shown in Table 13, and the resultant culture solutions were continuously cultured under normal cell culture conditions (37° C., CO2 concentration of 5%, humidity of 100%). For each adherent cell, detachment and suspension of adherent cells from the dish wall was observed over time. For determination of detachment and suspension, the culture dish was gently shaken manually to observe whether the cells were detached from the dish wall and suspended, and the case where 90% or more of the cells were detached and suspended was determined as detachment and suspension of adherent cells. The results are of N=4. In Table 13, “∘” means that the cells were detached and suspended, and “x” means that the cells were not detached and suspended.

[2] = tested on: human amnion-derived mesenchymal stem cells; assay: Differentiation state maintenance: marker positive rate by flow cytometry; details: DS 0.1 mg/mL in serum-free cell culture solution, 5 days of culture
Protocol: Using dextran sulfate (DS) as an active ingredient of the cell treatment agent, the cell dormancy effect by DS was considered according to the effect of preventing differentiation by maintaining the cells in an undifferentiated state, as an index. As the cells, human amnion-derived mesenchymal stem cells in an undifferentiated state were used. Using a normal serum-free cell culture solution as a conditioning solution, a cell preservation solution a was prepared by adding DS to the conditioning solution at 0.1 mg/ml, and a cell preservation solution b was prepared by adding FBS to the conditioning solution at 10%. To each of the cell preservation solutions a and b, the aforementioned stem cells were added at 10^5 cells/ml, respectively, and then cultured for 5 days under normal cell culture conditions (37° C., CO2 concentration of 5%, humidity of 100%). The degrees of differentiation of stem cells before culture and after 5 days of culture were evaluated and compared by flow cytometry. The method followed the method described in Masoumeh Fakhr Taha, Vahideh Hedayati “Isolation, identification and multipotential differentiation of mouse adipose tissue-derived stem cells” Tissue and Cell 42 (2010) 211-216. The evaluation was made according to CD29 and CD44 as undifferentiation markers and CD11b, CD31, and CD45 as markers of differentiation into mesenchymal cells.

[3] = tested on: Chinese hamster fibroblasts; assay: Cell detaching and suspending effect (Experimental Example 4); details: same experiment as Table 13 with Chinese hamster fibroblasts

dextran sulfate [DS] was tested, and the “Detachment and suspension of adherent cells by lapse time after replacement (hour)” value (from here on “Detachment and suspension … (hour)”) ([1]; DS 0.1 mg/mL aqueous solution (MW 36000-50000), later lapse times up to 48 h, span not shown) was “∘ (“∘” means that the cells were detached and suspended)”, the “Detachment and suspension … (hour)” value ([1]; DS 0.1 mg/mL aqueous solution (MW 36000-50000), starts at <12 h) was “x (“x” means that the cells were not detached and suspended)” and the “Detachment and suspension … (hour)” value ([1]; DS 1 mg/mL aqueous solution (MW 36000-50000), later lapse times up to 48 h, span not shown) was “∘ (“∘” means that the cells were detached and suspended)”. For the same substance, the “Detachment and suspension … (hour)” value ([1]; DS 1 mg/mL aqueous solution (MW 36000-50000), starts at <12 h) was “x (“x” means that the cells were not detached and suspended)”, the “Detachment and suspension … (hour)” value ([1]; DS 10 mg/mL aqueous solution (MW 36000-50000), later lapse times up to 48 h, span not shown) was “∘ (“∘” means that the cells were detached and suspended)” and the “Detachment and suspension … (hour)” value ([1]; DS 10 mg/mL aqueous solution (MW 36000-50000), starts at <12 h) was “x (“x” means that the cells were not detached and suspended)”. For the same substance, the “Positive rate of marker CD11b after culture” value ([2]; differentiation marker) was 19.8%, the “Positive rate of marker CD31 after culture” value ([2]; differentiation marker) was 8.3% and the “Positive rate of marker CD45 after culture” value ([2]; differentiation marker) was 7.3%. For the same substance, the “Positive rate of marker CD29 after culture” value ([2]; undifferentiation marker) was 98.7%, the “Positive rate of marker CD44 after culture” value ([2]; undifferentiation marker) was 62.3% and the “Detachment and suspension of adherent cells” value [3] was “equivalent results were obtained”.
